Measured values: patent US10752900B2, “Oligonucleotides for modulating gene expression and uses thereof” (BIOGENERA S.P.A., priority 2012, dated 2020)

How the values were obtained:
MYCN gene = assay: QT-PCR, MYCN mRNA in Kelly cells; type: cell-based, human; parameters: mRNA Inhibition (%)(Kelly): concentration or dose not given beside the values; conditions: for mRNA inhibition (%): Table 1, PNA 1 μM, RNA extracted after 24 hours; for Kelly % mRNA: Table 6
Procedure: For the purpose of assessing the ability of the oligonucleotides of the present invention to modulate the expression of the target genes, their ability to reduce the quantity of messenger RNA was analyzed using the Real-Time PCR technique.
For this purpose, use was made of 24-well plates, which were seeded with 5.0×10^4 cells with 0.3 ml of OPTI-MEM (GIBCO BRL) medium, 4% FBS and 2 mM L-glutammine (experiments in triplicate) per well.
The cells were incubated for 24 hours at 37° C., in an atmosphere containing 5% CO2 to permit adherence to the base of the wells.
Each oligonucleotide analyzed, except for the PNA oligonucleotides, was incubated beforehand with 2 μl of Lipofectamine 2000 (Invitrogen), with 0.3 mL of serum-free OPTI-MEM (GIBCO BRL) medium.
For each well, the oligonucleotides were analyzed at the following final concentrations: • the antisense oligonucleotides siRNA and siRNA gapmer (i.e. the oligonucleotides containing one or more monomers of chemically modified nucleic acids at the 3′ or 5′ end, while in the central portion they have monomers of nucleic acids that have not been modified or have been modified at the level of the phosphodiester bond as a phosphorothioate bond) were used at 200 nM; • the antisense oligonucleotides containing phosphorothioate DNA monomers, the RNA antigene oligonucleotides (agRNA) and the oligonucleotides containing DNA monomers and LNA monomers were used at 10 μM; • the morpholino oligonucleotides were used at a concentration of 1 μM, and • the PNA oligonucleotides were administered at a concentration of 1 μM.
The cells were treated with the oligonucleotides, adding FBS up to 4% 6 hours after administration of the same. After 24 hours the total RNA was extracted from each well and purified using the RNeasy Mini Kit (QIAGEN).
Assays were performed on 8 cell lines obtained from 5 different human tumours which are correlated with MYCN expression, i.e.: • as a neuroblastoma model use was made of the cell lines Kelly, IMR-32 (where the MYCN gene is amplified and superexpressed) and SKNBE2c and LAN1 (where the MYCN gene is amplified and superexpressed and the p53 gene is mutated); • as a rabdomiosarcoma model use was made of the cell line RH30, where the MYCN gene is amplified and superexpressed; • as a Wilms' tumour model use was made of the cell line WiT49, where the MYCN gene is amplified and superexpressed; • as a retinoblastoma model use was made of the cell line Y79, where the MYCN gene is amplified and superexpressed; and • as a model of small cell lung cancer use was made of the cell line H69 where the MYCN gene is amplified and superexpressed.
As a control, use was made of the same cell lines as listed above treated with sterile water instead of oligonucleotides. Each RNA sample was quantified (in duplicate) using a NanoDrop ND-1000 spectrophotometer (NanoDrop Technologies). The first strand of cDNA was produced using the cDNA Synthesis Kit for RT-PCR (Roche). For the cDNA synthesis reaction a total of 1 μg of RNA was used. For the real-time PCR, 10 ng of cDNA in a final volume of 20 μl was used with SYBR Green Master Mix 2× (Applied Biosystems) (3 identical experiments were conducted in triplicate). Two housekeeping genes were used as positive controls: GAPDH and beta-actin (ACTB).
The conditions of the QT-PCR reaction were: 10 min at 95° C., 20 sec at 95° C., and 30 sec at 60° C., for 50 cycles.
As far as the PNA oligonucleotides are concerned, the results regarding their ability to inhibit the transcription of the MYCN gene and proliferation of Kelly cells are shown in Table 1.
The oligonucleotides were tested in vitro (at a concentration of 2.5 μM) to determine their ability to inhibit the transcription of the gene they are directed against by measuring the levels of the gene messenger in cellular models in which the gene of interest is overexpressed. The methods used are the ones described in example 1. […]

[1] = tested on: rabdomyosarcoma cells (RH30); assay: Cellular proliferation assay (ATP-Lite), RH30 cells; type: cell-based, human; conditions: Table 6, PNA
Procedure: For the purpose of assessing the gene modulation ability of the oligonucleotides of the present invention, the effect of their administration on cell viability was determined. For this purpose 5×10^3 cells per well were seeded into 96-well cell culture plates (experiments conducted in triplicate) with 100 μl of OPTI-MEM (GIBCO BRL) medium containing 4% FBS and 2 mM of L-glutammine. The PNA oligonucleotides were administered at different concentrations (1 μM-2.5 μM-5 μM-10 μM) in order to observe a dose-effect relationship. As regards all the other oligonucleotides, the concentrations at which they administered are listed in the paragraph: The viability of the treated cells was determined at 48, 72, 96 and 168 hours after treatment. Cell viability was assessed by means of an ATP-Lite assay (Luminescence ATP Detection Assay System, PerkinElmer) and is reported as the ratio between the average signal of the treated wells compared to the average value of the wells of untreated control cells. The cells were processed following the instructions provided with the kit. The assays were performed on the same cell lines used to determine the levels of the MYCN gene messenger and listed in the paragraph: Treatments with Oligonucleotides-QT-PCR. The PNAs having SEQ ID NO: 1-12 were also tested on different cell lines which overexpress MYCN (Kelly, SKNBE2c, RH30, […] 1 and H69). The results are shown in Table 6 and confirm the selectivity and specificity of the inhibition effect of the PNAs on the product of protein translation of the MYCN gene. Chimeric oligonucleotides comprising DNA monomers and LNA monomers and having the MYCN gene as their target were tested in vitro on alveolar rabdomyosarcoma cells (RH30). […] The antisense oligonucleotides designed and synthesized by the Applicant according to the parameters described in the present invention were analyzed in vitro on rabdomyosarcoma cells (RH30).

Row | Substance | mRNA inhibition (%) (MYCN gene) | Kelly % mRNA (MYCN gene) [%] | RH30 % cell prol. [1] [%] | mRNA Inhibition (%)(Kelly) (MYCN gene; Table 7, SEQ ID NO: 5 and guanine-group mutants) [%]
1 | SEQ ID NO: 1: PNA ATGCCGGGCATGATCT against MYCN; subject of patent EP 1618195, control sequence used for comparison (all peptide nucleic acid (PNA)) [reference compound] | 42 | 48 | 76 | 
2 | SEQ ID NO: 2: PNA antigene oligonucleotide GGGTGGATGCGGGGGG directed against MYCN (PNA backbone, chemistry not fully specified) | 75 | 75 | 56 | 
3 | SEQ ID NO: 3: PNA antigene oligonucleotide GATGCGGGGGGCTCCT directed against MYCN (PNA backbone, chemistry not fully specified) | 68 | 68 | 59 | 
4 | SEQ ID NO: 4: PNA antigene oligonucleotide GTCGGCGGGAGGTAAG directed against MYCN (PNA backbone, chemistry not fully specified) | 65 | 65 | 62 | 
5 | SEQ ID NO: 5: PNA antigene oligonucleotide GCTGGGTGGATGCGGG directed against MYCN (PNA backbone, chemistry not fully specified) | 62 | 62 | 64 | 62
6 | SEQ ID NO: 6: PNA antigene oligonucleotide TGGACGCGCTGGGTGG directed against MYCN (PNA backbone, chemistry not fully specified) | 60 | 60 | 64 | 
7 | SEQ ID NO: 7: PNA antigene oligonucleotide CGCGCTGGGTGGATGC directed against MYCN (all peptide nucleic acid (PNA)) | 58 | 58 | 63 | 
8 | SEQ ID NO: 8: PNA antigene oligonucleotide GTCTGGACGCGCTGGG directed against MYCN (all peptide nucleic acid (PNA)) | 54 | 54 | 60 | 
9 | SEQ ID NO: 9: PNA antigene oligonucleotide CCCTGCAGTCGGCGGG directed against MYCN (all peptide nucleic acid (PNA)) | 51 | 51 | 71 | 
10 | SEQ ID NO: 10: PNA antigene oligonucleotide CGGCCGCGGGCCGCCA directed against MYCN (PNA backbone, chemistry not fully specified) | 51 | 51 | 80 | 
11 | SEQ ID NO: 11: PNA antigene oligonucleotide GGGAACTGTGTTGGAG directed against MYCN (PNA backbone, chemistry not fully specified) | 48 | 50 | 78 | 
12 | SEQ ID NO: 12: PNA antigene oligonucleotide TGTCTGGACGCGCTGG directed against MYCN (all peptide nucleic acid (PNA)) | 47 | 50 | 77 | 
